Article PMC9386376, “Discovery of spirooxindole-derived small-molecule compounds as novel HDAC/MDM2 dual inhibitors and investigation of their anticancer activity” (Frontiers in Oncology, 2022)

Columns and labels:
[1] = target: T1, GST-tagged MDM2 (Homo sapiens, UniProt Q00987); assay: HTRF enzyme inhibition assay, MDM2; format: biochemical; conditions: compound at 1 μM
T1 construct: purchased Cisbio Co. Ltd

[2] = target: T1, GST-tagged MDM2; assay: HTRF enzyme inhibition assay, MDM2; format: biochemical
[3] = target: HDAC4 (Homo sapiens, UniProt P56524); assay: HDAC isoform selectivity, HDAC4; format: biochemical; conditions: HDAC subtype panel
[4] = test system: MCF-7 cells; assay: Annexin V-FITC/PI double staining, flow cytometry; format: cell-based, human; conditions: MCF-7, 5.0 μM, 24 h
Experimental: It was reported that the inactivation of HDAC and/or MDM2 could increase the percentage of apoptosis cells ([85]–[87]). Therefore, three methods were applied to assess the effect of MDM2-HDAC dual inhibitor 11b on the apoptosis of MCF-7 cells. […] Subsequently, the annexin V-FITC/propidium iodide (PI) double staining method was carried out to quantitatively detect the effect of compound 11b on cell apoptosis (Figure 9B).
Cells were collected after incubation, then fixed with 75% ice-cold ethanol and stored at -20°C for 1 h. The cells were then harvested with 0.25% trypsin (without EDTA) and centrifuged at 2000 rpm for 5min. Then, the harvested cells were washed with ice-cold PBS twice and resuspended in 500 μL of 1× binding buffer, which was then added to 5 μL of annexin V-FITC and incubated at room temperature in the dark for 15 min. After adding 10 μL of propidium iodide (PI), the cells were incubated at room temperature in the dark. After another 15 min incubation, the cells were collected and analyzed by flow cytometry.

[5] = test system: MCF-7 cells; assay: MTT antiproliferative assay, MCF-7; conditions: Homo sapiens, MCF7, read-out: IC50 MCF-7
Experimental: (§1) The cytotoxicity assay was performed with MTT method as previously described ([73], [88], [89]).

[6] = test system: A431 cells; assay: MTT antiproliferative assay, A431; conditions: Homo sapiens, A-431, read-out: IC50 A431
Experimental: as §1

[7] = target: T2, HDAC8 (Homo sapiens, UniProt Q9BY41); assay: HDAC isoform selectivity, HDAC8; format: biochemical; conditions: HDAC subtype panel
T2 sequence (Q9BY41 1-377): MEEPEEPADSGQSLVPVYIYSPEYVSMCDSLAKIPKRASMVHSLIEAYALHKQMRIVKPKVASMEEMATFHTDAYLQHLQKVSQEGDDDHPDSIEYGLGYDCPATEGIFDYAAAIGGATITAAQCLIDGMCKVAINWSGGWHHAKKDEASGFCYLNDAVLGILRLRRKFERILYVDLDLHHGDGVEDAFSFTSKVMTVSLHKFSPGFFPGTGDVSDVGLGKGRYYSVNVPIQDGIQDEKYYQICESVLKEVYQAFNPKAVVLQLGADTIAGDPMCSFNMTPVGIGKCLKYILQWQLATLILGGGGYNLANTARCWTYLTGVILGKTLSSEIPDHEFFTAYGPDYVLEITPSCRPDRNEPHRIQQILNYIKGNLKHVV

[8] = target: HDAC3 (Homo sapiens, UniProt O15379); assay: HDAC isoform selectivity, HDAC3; format: biochemical; conditions: HDAC subtype panel
[9] = target: T3, HDAC6 (Homo sapiens, UniProt Q9UBN7); assay: HDAC isoform selectivity, HDAC6; format: biochemical; conditions: HDAC subtype panel
T3 sequence (Q9UBN7 1-1215): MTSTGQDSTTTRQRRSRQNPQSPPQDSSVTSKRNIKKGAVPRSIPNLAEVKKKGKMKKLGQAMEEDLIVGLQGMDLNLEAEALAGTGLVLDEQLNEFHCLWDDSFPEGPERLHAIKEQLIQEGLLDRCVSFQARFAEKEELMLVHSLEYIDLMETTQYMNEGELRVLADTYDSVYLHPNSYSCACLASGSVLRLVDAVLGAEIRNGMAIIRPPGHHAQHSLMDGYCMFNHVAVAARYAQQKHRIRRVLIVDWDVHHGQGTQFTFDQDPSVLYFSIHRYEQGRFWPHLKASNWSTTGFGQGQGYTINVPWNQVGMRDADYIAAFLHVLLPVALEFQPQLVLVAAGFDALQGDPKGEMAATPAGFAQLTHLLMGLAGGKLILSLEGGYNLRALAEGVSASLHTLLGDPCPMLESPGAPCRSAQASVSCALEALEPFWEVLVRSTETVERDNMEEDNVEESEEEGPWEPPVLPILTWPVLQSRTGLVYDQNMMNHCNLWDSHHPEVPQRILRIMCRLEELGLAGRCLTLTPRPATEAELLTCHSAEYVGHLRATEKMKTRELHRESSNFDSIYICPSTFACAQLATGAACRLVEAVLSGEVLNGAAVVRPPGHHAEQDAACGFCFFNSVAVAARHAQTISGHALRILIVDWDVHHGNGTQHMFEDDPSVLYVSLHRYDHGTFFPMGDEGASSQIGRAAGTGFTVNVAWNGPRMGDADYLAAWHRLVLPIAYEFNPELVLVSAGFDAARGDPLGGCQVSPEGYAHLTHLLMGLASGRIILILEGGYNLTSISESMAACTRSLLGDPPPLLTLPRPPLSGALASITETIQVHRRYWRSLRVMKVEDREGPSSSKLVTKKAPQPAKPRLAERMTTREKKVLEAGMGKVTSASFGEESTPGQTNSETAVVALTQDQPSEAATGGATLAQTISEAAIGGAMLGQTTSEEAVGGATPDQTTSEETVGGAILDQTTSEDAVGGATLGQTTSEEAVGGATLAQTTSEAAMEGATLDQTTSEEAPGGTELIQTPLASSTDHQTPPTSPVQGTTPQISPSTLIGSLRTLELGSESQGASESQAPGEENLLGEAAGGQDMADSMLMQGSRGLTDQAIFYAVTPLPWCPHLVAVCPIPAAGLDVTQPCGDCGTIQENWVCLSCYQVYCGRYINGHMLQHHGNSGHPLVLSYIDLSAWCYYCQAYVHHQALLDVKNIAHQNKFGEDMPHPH

T1 sequence (Q00987 whole entry): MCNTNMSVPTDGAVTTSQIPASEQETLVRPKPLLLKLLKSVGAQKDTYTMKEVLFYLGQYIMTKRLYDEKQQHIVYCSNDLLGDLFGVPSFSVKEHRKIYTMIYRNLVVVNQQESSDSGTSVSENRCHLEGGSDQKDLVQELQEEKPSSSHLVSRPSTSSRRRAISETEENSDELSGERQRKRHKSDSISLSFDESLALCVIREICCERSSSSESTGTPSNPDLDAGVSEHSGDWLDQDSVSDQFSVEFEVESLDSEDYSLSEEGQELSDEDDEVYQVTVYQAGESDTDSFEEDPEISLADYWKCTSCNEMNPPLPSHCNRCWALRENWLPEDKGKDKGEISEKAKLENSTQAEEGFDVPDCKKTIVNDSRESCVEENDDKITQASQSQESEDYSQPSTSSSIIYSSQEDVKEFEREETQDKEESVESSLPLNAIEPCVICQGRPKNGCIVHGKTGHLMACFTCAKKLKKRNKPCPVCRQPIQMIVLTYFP
Chain of HDAC4 (P56524 whole entry, canonical isoform): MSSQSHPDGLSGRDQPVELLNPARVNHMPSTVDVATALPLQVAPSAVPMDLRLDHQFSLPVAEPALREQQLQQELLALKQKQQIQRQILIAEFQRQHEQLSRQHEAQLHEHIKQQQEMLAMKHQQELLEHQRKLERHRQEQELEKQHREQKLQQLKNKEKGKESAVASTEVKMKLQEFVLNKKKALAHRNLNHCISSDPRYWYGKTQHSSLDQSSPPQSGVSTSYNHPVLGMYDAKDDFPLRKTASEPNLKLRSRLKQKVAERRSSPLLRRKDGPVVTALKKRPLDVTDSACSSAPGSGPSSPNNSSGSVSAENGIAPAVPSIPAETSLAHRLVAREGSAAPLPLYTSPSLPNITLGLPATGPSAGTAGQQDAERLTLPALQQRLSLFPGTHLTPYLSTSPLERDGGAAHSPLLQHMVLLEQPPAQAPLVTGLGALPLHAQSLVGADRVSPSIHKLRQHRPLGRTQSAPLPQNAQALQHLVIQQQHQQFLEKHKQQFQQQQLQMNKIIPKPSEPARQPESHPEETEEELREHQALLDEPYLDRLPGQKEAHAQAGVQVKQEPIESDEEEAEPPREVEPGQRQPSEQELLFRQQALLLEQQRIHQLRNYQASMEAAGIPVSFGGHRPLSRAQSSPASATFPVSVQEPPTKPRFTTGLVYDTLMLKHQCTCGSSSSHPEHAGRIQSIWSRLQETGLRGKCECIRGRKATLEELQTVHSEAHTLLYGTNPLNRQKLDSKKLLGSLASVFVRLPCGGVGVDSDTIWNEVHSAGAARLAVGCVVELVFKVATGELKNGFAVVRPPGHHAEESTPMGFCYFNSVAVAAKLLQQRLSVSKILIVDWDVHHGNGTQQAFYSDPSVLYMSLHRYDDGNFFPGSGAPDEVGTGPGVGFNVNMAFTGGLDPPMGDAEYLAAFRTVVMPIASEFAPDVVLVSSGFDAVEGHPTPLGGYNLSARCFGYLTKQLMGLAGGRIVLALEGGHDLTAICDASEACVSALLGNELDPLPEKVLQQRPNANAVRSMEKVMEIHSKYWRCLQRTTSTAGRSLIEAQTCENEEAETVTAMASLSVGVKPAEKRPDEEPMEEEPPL
Chain of HDAC3 (O15379 whole entry, canonical isoform): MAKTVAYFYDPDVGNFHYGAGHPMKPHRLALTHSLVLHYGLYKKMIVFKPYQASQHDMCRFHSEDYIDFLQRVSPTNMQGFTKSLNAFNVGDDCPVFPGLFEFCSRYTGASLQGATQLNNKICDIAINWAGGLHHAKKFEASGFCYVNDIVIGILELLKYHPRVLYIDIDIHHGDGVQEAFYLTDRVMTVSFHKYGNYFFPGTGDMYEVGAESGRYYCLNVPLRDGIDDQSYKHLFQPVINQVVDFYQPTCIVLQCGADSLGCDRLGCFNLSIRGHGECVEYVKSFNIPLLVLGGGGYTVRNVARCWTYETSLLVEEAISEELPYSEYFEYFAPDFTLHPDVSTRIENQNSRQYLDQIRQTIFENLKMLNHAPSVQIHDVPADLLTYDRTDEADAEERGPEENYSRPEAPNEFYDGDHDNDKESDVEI
Chain of HDAC3 (Q9Y618 395-489 partner limits assumed): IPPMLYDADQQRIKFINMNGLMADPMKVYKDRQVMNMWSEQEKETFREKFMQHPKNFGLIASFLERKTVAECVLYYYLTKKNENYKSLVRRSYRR

O=C(CCCCCCC(=O)N1CCC(C(=O)Nc2ccc([C@@H]3[C@H]4CSCN4[C@]4(C(=O)Nc5cc(Cl)ccc54)[C@H]3C(=O)c3ccccc3)cc2)CC1)NO [compound 11b, N-(4-((3R,6'S,7'R,7a'S)-6'-benzoyl-6-chloro-2-oxo-1',6',7',7a'-tetrahydro-3'H-spiro[indoline-3,5'-pyrrolo[1,2-c]thiazol]-7'-yl)phenyl)-1-(8-(hydroxyamino)-8-oxooctanoyl)piperidine-4-carboxamide]
inhibition at 1 µM [1]: 68%
IC50 [2]: 339 ± 68 nM
IC50 [3]: > 10000 nM
apoptotic cells [4]: 37.36%
IC50 [5]: 1370 ± 450 nM
IC50 [6]: 1890 ± 880 nM
IC50 [7]: 313 ± 23 nM
IC50 [8]: 115 ± 9 nM
IC50 [9]: 120 ± 26 nM
